From patent US6936726B2, “Flavanol and cysteamine conjugates” (Consejo Superior de Investigaciones Cientificas, priority 2000, dated 2005)

Test: DPPH (1,1-diphenyl-2-picrylhydracil) antioxidant/antiradical power assay
Conditions: initial DPPH• around 60 μM; absorbance at 517 nm; calculated from the curves of FIG. 3
Description: FIG. 3. Antioxidant efficacy of phenolic compounds in the DPPH assay. The absorbance (A) at 517 nm is a measure of the amount of free radical remaining in solution. (1−A/A0)×100 represents the percentage of DPPH that has reacted with the antioxidant. The amount of antioxidant expressed as micromoles per micromole of initial DPPH• to correct the possible day to day variation in the amount of initial DPPH• The initial concentration of DPPH• is calculated from the absorbance (A) and a calibration line. Each point represents the mean of three determinations.
The new molecules are potent antioxidants with an excellent capacity to capture free radicals. The conjugates are more efficient than Trolox (water-soluble analogue of Vitamin E) in the DPPH assay (1,1-diphenyl-2-picrylhydracil) [Brand-Williams, W., Cuvelier, M. E., Berset, C., Lebensm.-Wiss. u.-Technol., 28, 25-30 (1995)]. The conjugates are also more efficient than the corresponding non-derived species.
The new pure products are strong antioxidants/capturers of free radicals. FIG. 3 presents the results of the DPPH test (1,1-diphenyl-2-pycrylhydracil). The values of EC50 (effective concentration 50) are calculated from the curves. EC50 is the amount of antioxidant required to reduce the initial concentration to half (around 60 μM) of DPPH•. This amount is expressed as micromoles antioxidant/micromoles initial DPPH•. The EC50 values for compounds relevant to the present invention are: Trolox (water-soluble analogue of Vitamin E), 0.26; (−)-epicatechine, 0.19, 4ξ-(2-aminoethylthio)epicatechine I, 0.11; 4ξ-(2-aminoethylthio)epicatechinegalate III, 0.11.

Row | Compound | EC50 (amount of antioxidant required to reduce the initial concentration of DPPH• to half)
1 | Cc1c(C)c2c(c(C)c1O)CCC(C)(C(=O)O)O2 (stereo not shown) [Trolox] | 0.26 micromoles antioxidant/micromoles initial DPPH•
2 | (−)-epicatechine | 0.19 micromoles antioxidant/micromoles initial DPPH•
3 | NCCSC1c2c(O)cc(O)cc2O[C@H](c2ccc(O)c(O)c2)[C@H]1OC(=O)c1cc(O)c(O)c(O)c1 (stereo partly shown) [III, 4ξ-(2-aminoethylthio)epicatechinegalate] | 0.11 micromoles antioxidant/micromoles initial DPPH•
4 | NCCSC1c2c(O)cc(O)cc2O[C@H](c2ccc(O)c(O)c2)[C@H]1O (stereo partly shown) [I, 4ξ-(2-aminoethylthio)epicatechine] | 0.11 micromoles antioxidant/micromoles initial DPPH•
